Results published in ChEMBL document CHEMBL1201862, “PubChem BioAssay data set” (2004).
Activity calls are given as the source filed them.

How the values were obtained:
[1] = molecular target: T1, Caspase-3 (Homo sapiens, UniProt P42574); type: functional;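 also: Dose-response selectivity test against caspase-3 for candidate inhibitors of sentrin-specific proteases (SENPs)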
T1 sequence (P42574 whole entry): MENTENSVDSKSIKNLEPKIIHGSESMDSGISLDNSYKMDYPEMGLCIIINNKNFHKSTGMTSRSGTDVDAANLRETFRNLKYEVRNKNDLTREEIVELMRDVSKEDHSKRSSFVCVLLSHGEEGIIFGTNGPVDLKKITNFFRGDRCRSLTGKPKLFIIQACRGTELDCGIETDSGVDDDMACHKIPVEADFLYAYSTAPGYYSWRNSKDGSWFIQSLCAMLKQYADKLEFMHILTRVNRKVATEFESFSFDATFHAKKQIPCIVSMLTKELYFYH

[2] = system: Streptococcus sp. 'group A'; assay: Streptococcus pyogenes SK(-)GAS viability under kanamycin – luminescence, BacTiterGlo, confirmation, counter-screen for streptokinase expression inhibitor project, dose response (AID 1900); type: functional, organism-based
[3] = molecular target: T2, Replicative DNA helicase DnaB (Mycobacterium tuberculosis, UniProt P9WMR3); assay: DnaB intein splicing inhibitors, dose response, biochemical, cell-free fluorescence (AID 449749); type: functional
T2 sequence (P9WMR3 whole entry): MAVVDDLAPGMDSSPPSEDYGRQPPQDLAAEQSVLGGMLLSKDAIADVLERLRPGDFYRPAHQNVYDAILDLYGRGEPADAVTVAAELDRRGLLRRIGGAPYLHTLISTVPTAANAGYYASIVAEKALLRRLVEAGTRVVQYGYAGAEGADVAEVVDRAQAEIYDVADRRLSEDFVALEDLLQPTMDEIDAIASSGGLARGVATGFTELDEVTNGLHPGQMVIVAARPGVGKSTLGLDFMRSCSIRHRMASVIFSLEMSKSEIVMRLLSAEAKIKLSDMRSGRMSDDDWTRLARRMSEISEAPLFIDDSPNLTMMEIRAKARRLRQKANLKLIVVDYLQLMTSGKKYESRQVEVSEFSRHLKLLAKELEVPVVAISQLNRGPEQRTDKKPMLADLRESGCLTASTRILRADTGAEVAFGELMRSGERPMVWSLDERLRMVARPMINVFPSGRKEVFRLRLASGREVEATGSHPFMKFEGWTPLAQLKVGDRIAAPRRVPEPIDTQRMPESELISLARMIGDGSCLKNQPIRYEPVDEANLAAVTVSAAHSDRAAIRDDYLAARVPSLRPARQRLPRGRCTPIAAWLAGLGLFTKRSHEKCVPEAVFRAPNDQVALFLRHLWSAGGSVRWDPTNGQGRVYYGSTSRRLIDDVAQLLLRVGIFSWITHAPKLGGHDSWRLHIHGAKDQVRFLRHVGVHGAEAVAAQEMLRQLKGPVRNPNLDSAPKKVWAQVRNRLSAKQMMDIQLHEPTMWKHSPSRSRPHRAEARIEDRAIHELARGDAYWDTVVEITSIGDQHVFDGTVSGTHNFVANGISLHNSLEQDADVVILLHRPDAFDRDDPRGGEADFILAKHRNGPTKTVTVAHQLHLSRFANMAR

[4] = system: Streptococcus; assay: GAS UMAA2166 growth inhibition – luminescence, BacTiterGlo, counter-screen for streptokinase expression inhibitor project, dose response (AID 1915); type: functional, organism-based;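 also: potency for reduction of bacterial viability or growth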
[5] = system: INS1; assay: INS-1E survival protection against cytokine death – cell-based, luminescence, retest, dose response (AID 449756); type: functional; conditions: Rattus norvegicus;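 also: cell death triggered by IL-1 beta plus TNF-alpha plus IFN-gamma mixture; protective hits raise ATP signal compared with cytokine alone wells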
[6] = molecular target: Cyclin-dependent kinase 9 (Homo sapiens, UniProt P50750); type: functional;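 also: value from the CDK9 entry of a kinome-spanning kinase panel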
[7] = molecular target: Aurora kinase B (Homo sapiens, UniProt Q96GD4); type: functional
[8] = molecular target: Platelet-derived growth factor receptor alpha (Homo sapiens, UniProt P16234); assay: Navigating the Kinome. Panel member name: PDGFRA; type: functional
[9] = molecular target: Serine/threonine-protein kinase Nek2 (Homo sapiens, UniProt P51955); type: functional
[10] = molecular target: Serine/threonine-protein kinase Chk1 (Homo sapiens, UniProt O14757); type: functional;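 also: measured as one member of a kinome-wide kinase profiling panel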
[11] = molecular target: Glycogen synthase kinase-3 alpha (Homo sapiens, UniProt P49840); type: functional;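 also: GSK3A result taken from a broad kinome-wide kinase panel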
[12] = molecular target: Hepatocyte growth factor receptor (Homo sapiens, UniProt P08581); type: functional;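 also: kinase panel profiling across the kinome, with MET as the panel member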
[13] = molecular target: Leukocyte tyrosine kinase receptor (Homo sapiens, UniProt P29376); assay: Navigating the Kinome. Panel member name: LTK; type: functional
[14] = molecular target: Activin receptor type-1 (Homo sapiens, UniProt Q04771); assay: Navigating the Kinome. Panel member name: ACVR1; type: functional
[15] = molecular target: Dual specificity mitogen-activated protein kinase kinase 1 (Homo sapiens, UniProt Q02750); assay: Navigating the Kinome. Panel member name: MAP2K1; type: functional
[16] = molecular target: Proto-oncogene tyrosine-protein kinase receptor Ret (Homo sapiens, UniProt P07949); type: functional;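 also: measured within a kinome-wide profiling panel, RET as the panel member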
[17] = molecular target: Leucine-rich repeat serine/threonine-protein kinase 2 (Homo sapiens, UniProt Q5S007); type: functional;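 also: value from a broad kinome-wide panel profiling study in which LRRK2 was one of the kinases tested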
[18] = molecular target: Serine/threonine-protein kinase TAO1 (Homo sapiens, UniProt Q7L7X3); type: functional
[19] = molecular target: Dual specificity protein kinase CLK4 (Homo sapiens, UniProt Q9HAZ1); type: functional
[20] = molecular target: Tyrosine-protein kinase Fyn (Homo sapiens, UniProt P06241); type: functional

Sequence of Platelet-derived growth factor receptor alpha (P16234 whole entry): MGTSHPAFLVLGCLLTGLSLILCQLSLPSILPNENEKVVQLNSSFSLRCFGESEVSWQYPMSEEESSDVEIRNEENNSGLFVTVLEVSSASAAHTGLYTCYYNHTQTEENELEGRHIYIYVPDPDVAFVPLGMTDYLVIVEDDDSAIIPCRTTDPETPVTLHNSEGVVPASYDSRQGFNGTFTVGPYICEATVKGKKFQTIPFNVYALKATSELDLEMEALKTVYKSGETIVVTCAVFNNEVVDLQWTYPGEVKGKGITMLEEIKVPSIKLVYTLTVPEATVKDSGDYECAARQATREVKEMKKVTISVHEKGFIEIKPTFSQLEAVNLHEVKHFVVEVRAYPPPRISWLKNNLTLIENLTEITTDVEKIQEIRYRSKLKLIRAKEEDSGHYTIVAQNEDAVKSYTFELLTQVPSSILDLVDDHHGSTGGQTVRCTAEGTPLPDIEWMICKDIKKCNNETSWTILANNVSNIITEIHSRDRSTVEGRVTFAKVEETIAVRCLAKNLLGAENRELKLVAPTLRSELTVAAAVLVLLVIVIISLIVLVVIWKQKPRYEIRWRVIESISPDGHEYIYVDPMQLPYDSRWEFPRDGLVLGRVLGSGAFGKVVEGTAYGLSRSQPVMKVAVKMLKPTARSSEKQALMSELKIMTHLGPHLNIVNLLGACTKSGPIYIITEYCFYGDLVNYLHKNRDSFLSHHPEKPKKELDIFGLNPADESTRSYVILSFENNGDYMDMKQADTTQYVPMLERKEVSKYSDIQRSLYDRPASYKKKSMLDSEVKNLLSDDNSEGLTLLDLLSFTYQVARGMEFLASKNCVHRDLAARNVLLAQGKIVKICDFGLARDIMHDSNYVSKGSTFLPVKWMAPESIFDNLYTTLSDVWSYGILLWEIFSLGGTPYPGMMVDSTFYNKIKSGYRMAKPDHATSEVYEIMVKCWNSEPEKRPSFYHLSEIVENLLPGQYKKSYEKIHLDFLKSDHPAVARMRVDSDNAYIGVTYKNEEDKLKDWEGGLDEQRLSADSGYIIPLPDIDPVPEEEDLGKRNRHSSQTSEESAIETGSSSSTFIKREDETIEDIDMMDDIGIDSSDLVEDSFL
Sequence of Aurora kinase B (Q96GD4 whole entry): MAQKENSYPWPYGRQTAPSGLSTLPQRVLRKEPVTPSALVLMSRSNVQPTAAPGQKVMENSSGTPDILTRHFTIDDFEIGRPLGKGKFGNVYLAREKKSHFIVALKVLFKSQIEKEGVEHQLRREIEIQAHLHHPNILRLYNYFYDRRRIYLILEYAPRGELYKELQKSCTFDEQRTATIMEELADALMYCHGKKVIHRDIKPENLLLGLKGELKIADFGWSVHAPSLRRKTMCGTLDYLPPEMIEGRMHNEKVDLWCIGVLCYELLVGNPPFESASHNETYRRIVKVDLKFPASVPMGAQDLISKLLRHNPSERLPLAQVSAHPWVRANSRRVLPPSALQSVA
Sequence of Leukocyte tyrosine kinase receptor (P29376 whole entry): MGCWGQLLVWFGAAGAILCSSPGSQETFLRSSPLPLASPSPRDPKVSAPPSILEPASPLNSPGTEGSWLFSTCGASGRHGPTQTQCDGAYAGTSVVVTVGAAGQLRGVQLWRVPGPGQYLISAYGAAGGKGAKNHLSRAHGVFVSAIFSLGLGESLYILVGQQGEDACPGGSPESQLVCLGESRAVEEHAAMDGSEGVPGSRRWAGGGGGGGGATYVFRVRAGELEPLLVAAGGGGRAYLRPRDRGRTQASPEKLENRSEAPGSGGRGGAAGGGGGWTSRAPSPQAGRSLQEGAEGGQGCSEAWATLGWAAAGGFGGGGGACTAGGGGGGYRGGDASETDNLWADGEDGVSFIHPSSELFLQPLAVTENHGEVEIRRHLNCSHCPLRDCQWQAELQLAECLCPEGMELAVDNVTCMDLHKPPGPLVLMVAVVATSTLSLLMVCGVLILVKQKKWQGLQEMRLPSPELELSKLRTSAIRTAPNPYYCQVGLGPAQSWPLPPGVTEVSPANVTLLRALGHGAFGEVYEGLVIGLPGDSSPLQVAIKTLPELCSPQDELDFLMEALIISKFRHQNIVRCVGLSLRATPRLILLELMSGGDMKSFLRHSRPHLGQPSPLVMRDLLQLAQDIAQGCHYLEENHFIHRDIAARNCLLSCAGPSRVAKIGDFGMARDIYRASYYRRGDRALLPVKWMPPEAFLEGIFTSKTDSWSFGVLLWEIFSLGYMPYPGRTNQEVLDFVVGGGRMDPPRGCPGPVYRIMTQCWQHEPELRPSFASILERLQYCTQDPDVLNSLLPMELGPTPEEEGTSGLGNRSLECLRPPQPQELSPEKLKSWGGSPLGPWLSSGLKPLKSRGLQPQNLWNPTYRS
Sequence of Activin receptor type-1 (Q04771 whole entry): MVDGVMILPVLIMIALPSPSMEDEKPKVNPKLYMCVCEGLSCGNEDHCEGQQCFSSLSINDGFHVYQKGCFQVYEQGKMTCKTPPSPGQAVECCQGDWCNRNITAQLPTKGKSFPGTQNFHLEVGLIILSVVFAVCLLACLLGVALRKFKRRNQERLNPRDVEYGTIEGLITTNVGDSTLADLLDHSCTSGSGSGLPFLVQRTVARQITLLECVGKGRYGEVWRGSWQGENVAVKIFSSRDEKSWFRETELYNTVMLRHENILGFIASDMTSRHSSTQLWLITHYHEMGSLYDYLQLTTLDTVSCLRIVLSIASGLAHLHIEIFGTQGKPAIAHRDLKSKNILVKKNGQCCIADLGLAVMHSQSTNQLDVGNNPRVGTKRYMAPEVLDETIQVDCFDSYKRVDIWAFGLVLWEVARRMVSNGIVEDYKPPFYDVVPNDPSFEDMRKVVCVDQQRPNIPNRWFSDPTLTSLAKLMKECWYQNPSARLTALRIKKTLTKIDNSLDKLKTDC
Sequence of Serine/threonine-protein kinase Chk1 (O14757 whole entry): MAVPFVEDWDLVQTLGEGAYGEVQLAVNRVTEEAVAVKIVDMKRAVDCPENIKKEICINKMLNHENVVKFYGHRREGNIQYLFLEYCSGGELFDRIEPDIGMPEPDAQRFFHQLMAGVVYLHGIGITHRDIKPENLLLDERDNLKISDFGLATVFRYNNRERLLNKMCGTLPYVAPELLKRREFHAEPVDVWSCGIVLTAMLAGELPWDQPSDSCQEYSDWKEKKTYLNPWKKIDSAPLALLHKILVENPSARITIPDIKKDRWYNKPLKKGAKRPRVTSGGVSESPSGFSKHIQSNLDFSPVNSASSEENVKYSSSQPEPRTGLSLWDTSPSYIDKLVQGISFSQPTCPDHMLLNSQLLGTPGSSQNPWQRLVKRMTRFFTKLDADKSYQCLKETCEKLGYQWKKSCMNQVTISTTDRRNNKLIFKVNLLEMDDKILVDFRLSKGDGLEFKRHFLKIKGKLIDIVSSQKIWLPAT
Sequence of Proto-oncogene tyrosine-protein kinase receptor Ret (P07949 whole entry): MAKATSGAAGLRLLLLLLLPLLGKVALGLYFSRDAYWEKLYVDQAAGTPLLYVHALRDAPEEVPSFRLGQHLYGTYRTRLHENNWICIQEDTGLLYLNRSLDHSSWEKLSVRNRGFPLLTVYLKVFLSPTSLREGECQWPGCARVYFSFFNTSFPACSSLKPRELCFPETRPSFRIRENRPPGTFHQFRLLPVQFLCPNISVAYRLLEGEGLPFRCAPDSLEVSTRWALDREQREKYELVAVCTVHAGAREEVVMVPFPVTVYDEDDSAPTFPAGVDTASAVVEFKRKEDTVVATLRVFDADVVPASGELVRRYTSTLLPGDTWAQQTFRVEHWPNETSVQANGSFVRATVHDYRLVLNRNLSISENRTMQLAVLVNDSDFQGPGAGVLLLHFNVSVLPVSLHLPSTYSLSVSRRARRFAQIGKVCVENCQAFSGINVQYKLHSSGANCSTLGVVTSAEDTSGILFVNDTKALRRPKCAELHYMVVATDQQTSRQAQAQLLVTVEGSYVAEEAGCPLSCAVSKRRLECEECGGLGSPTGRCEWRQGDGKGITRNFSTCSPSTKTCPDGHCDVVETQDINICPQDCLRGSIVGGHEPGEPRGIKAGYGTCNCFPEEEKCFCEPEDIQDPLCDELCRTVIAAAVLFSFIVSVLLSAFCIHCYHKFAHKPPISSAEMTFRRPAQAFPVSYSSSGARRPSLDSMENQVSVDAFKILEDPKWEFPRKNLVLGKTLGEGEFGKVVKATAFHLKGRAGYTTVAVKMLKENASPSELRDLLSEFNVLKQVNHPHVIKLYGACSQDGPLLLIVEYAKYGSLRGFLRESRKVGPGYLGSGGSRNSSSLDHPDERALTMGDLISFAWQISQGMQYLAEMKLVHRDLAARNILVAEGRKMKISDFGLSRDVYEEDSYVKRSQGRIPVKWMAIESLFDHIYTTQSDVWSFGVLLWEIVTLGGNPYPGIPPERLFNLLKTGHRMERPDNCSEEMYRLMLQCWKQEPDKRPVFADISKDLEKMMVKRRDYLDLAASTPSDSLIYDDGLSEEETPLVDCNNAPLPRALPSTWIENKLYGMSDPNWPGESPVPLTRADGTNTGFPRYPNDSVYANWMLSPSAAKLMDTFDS
Sequence of Cyclin-dependent kinase 9 (P50750 whole entry): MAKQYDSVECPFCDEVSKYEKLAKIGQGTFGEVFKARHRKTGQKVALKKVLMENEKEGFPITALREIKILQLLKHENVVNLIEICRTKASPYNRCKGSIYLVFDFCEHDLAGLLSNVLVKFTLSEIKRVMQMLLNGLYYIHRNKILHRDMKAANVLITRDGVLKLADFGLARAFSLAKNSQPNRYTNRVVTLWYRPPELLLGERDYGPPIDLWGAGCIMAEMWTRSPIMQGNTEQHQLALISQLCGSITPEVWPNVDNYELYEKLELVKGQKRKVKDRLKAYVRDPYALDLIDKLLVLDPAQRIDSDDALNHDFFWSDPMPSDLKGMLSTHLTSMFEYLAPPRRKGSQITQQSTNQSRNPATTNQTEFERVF

Q: How did the IC50 [1] turn out when `CCCNC(=O)c1c(N)n(CC2CCCO2)c2nc3ccccc3nc12` (centres undefined) was run?
A: 15.2 µM (active)

Q: How did the EC50 [2] turn out when `O=C1/C(=C\c2cccc(O)c2O)SC(=S)N1Cc1ccccc1` was run?
A: 2.77 µM (active)

Q: What about the AC50 [3] of the same molecule?
A: > 380 µM (inactive)

Q: What about the EC50 [4] of the same molecule?
A: 6.24 µM (active)

Q: `CC(C)(C)c1cc[n+](C2=C([N-]S(=O)(=O)c3cccs3)C(=O)c3ccccc3C2=O)cc1` was tested. Which IC50 [1] did it give?
A: 23.8 µM (active)

Q: What about the EC50 [2] of the same molecule?
A: 2.73 µM (active)

Q: And the AC50 [3]?
A: 0.98 µM (active)

Q: And the EC50 [4]?
A: 7.2 µM (active)

Q: What about the AC50 [5] of the same molecule?
A: 2.04 µM (active)

Q: Which results are given for `COc1c(-c2nc3ccccc3[nH]2)c(O)cc2oc(C)cc(=O)c12`?
A: Ki [6]: 0.158 µM (active); Ki [7]: 0.794 µM (active); Ki [8]: 0.631 µM (active); Ki [9]: 0.316 µM (active); Ki [10]: 0.0398 µM (active); Ki [11]: 1 µM (active); Ki [12]: 0.126 µM (active); Ki [13]: 0.158 µM (active); Ki [14]: 1.26 µM (active); Ki [15]: 0.631 µM (active); Ki [16]: 1.26 µM (active); Ki [17]: 0.794 µM (active); Ki [18]: 3.98 µM (active); Ki [19]: 0.0794 µM (active); Ki [20]: 2 µM (active)

Q: Which results are given for `COC(=O)c1c(N)nc2ccccn12`?
A: Ki [6]: 39.8 µM (active); Ki [7]: 15.8 µM (active); Ki [8]: 79.4 µM (active); Ki [12]: 79.4 µM (active); Ki [13]: 10 µM (active); Ki [14]: 50.1 µM (active); Ki [15]: 31.6 µM (active); Ki [16]: 63.1 µM (active); Ki [17]: 2.51 µM (active); Ki [18]: 100 µM (active); Ki [19]: 3.98 µM (active)

Q: Which results are given for `CCc1ccc(S(=O)(=O)/N=C2\C=C(Nc3ccc(O)cc3)C(=O)c3ccccc32)cc1`?
A: EC50 [2]: 1.86 µM (active); AC50 [3]: 0.416 µM (active); EC50 [4]: 2.16 µM (active); AC50 [5]: 0.981 µM (active)

Q: How did the IC50 [1] turn out when `Cc1cc([N+](=O)[O-])cc(/C=N\NC(=O)C2COc3ccccc3O2)c1O` (centres undefined) was run?
A: 17.6 µM (active)

Q: What about the EC50 [2] of the same molecule?
A: 2.74 µM (active)

Q: What about the EC50 [4] of the same molecule?
A: 2.79 µM (active)

Q: With `Cc1ccc(F)c(NC(=O)Nc2ccc(-c3cccc4[nH]nc(N)c34)cc2)c1` [LINIFANIB] as the molecule, how does the Ki [7] read?
A: 0.0794 µM (active)

Q: What about the Ki [8] of the same molecule?
A: 0.0501 µM (active)

Q: And the Ki [9]?
A: > 3.16 µM (inactive)

Q: And the Ki [10]?
A: > 3.16 µM (inactive)

Q: What about the Ki [11] of the same molecule?
A: > 3.98 µM (inactive)

Q: And the Ki [13]?
A: 1 µM (active)

Q: What about the Ki [20] of the same molecule?
A: > 6.31 µM (inactive)
